This note sets out measurements from patent US20260216157A1, “TETRAHYDROTHIOPHENE DERIVATIVE AND USE THEREOF IN MEDICINE” (Haisco Pharmaceutical Group Co., Ltd., priority 2023, published 2026).

A short description of data set [1]: Pharmacokinetic test in mice. Type of data set: in vivo. The note with it: C57, mouse, PO 30 mg/kg, plasma. As to the method:
Biological Test Example 3: Pharmacokinetic Test in Mice
Experimental animals: C57 mice, 22-25 g, 6 mice/compound.
Experimental design: on the day of the experiment, C57 mice were randomly grouped according to their body weights. The animals were fasted with water available for 12-14 h one day before the administration, and were fed 4 h after the administration.
Before and after the administration, 0.06 mL of blood was taken from the orbit under isoflurane anesthesia, and placed in an EDTAK2 centrifuge tube. Centrifugation was performed at 5000 rpm at 4° C. for 10 min, and the plasma was collected. The blood collection time points for both the intravenous administration group and the intragastric administration group were: 0, 5 min, 15 min, 30 min, 1 h, 2 h, 4 h, 7 h, 24 h and 48 h. Before analysis and detection, all samples were stored at −80° C. The samples were quantitatively analyzed by LC-MS/MS.

The target of the next data set is T1, CYP1A2 (Homo sapiens, UniProt P05177).
T1 construct: co-incubated with human liver microsomes and test compounds; from tissue; host or cells: human liver microsomes
T1 sequence (P05177 1-516): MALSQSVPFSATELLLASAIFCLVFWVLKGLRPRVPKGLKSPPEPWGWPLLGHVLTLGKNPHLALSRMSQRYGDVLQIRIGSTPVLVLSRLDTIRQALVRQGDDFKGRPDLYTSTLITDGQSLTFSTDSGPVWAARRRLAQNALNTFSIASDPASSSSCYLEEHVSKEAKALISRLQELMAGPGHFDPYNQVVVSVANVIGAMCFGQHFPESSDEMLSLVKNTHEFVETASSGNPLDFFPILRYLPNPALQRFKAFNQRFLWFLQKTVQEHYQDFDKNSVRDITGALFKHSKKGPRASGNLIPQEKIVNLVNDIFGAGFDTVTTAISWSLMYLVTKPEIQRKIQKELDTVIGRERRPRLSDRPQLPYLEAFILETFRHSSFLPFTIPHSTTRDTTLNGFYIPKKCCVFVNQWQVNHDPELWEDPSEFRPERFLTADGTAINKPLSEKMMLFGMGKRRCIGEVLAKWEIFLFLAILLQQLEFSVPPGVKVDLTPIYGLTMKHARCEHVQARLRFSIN
The data set is described as follows: CYP450 enzyme inhibition test (human liver microsomes). Type of data set: in vitro ADME. Particulars: read-out: IC50 against CYP1A2. The protocol: (§1) Biological Test Example 6: CYP450 Enzyme Inhibition Test The purpose of this study was to evaluate the effect of test compounds on the activity of five isoenzymes (CYP1A2, CYP2C9, CYP2C19, CYP2D6, and CYP3A4) of human liver microsomal cytochrome P450 (CYP) by using an in vitro testing system. The specific probe substrates of CYP450 isoenzymes were co-incubated with human liver microsomes and test compounds at different concentrations, and the reaction was initiated by adding reduced nicotinamide adenine dinucleotide phosphate (NADPH). After the completion of the reaction, the samples were treated and subjected to the liquid chromatography-tandem mass spectrometry (LC-MS/MS) to quantitatively detect metabolites produced by the specific substrates. The changes in CYP enzyme activity were determined, and IC50 values were calculated to evaluate the inhibitory potential of the test compounds on each CYP enzyme subtype.

Another data set deals with T2, CYP2C19 (Homo sapiens, UniProt P33261).
T2 construct: co-incubated with human liver microsomes and test compounds; from tissue; host or cells: human liver microsomes
T2 sequence (P33261 whole entry): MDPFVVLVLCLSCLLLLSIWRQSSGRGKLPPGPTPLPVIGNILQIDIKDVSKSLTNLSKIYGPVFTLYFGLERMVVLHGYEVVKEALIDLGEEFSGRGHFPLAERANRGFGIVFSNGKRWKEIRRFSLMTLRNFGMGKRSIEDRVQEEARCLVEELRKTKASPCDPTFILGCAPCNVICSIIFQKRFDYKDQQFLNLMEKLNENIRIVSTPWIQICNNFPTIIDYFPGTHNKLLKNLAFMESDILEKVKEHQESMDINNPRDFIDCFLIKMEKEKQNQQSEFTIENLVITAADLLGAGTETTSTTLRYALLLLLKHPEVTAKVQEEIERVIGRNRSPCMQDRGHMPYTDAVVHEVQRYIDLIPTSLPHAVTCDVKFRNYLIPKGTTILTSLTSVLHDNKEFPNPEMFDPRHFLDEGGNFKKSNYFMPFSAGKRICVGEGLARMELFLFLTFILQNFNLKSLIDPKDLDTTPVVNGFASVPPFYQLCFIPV
The description is as above. Type of data set: in vitro ADME. The note with it: read-out: IC50 against CYP2C19. The protocol:
as §1

A further data set deals with T3, CYP2C9 (Homo sapiens, UniProt P11712).
T3 construct: co-incubated with human liver microsomes and test compounds; from tissue; host or cells: human liver microsomes
T3 sequence (P11712 whole entry): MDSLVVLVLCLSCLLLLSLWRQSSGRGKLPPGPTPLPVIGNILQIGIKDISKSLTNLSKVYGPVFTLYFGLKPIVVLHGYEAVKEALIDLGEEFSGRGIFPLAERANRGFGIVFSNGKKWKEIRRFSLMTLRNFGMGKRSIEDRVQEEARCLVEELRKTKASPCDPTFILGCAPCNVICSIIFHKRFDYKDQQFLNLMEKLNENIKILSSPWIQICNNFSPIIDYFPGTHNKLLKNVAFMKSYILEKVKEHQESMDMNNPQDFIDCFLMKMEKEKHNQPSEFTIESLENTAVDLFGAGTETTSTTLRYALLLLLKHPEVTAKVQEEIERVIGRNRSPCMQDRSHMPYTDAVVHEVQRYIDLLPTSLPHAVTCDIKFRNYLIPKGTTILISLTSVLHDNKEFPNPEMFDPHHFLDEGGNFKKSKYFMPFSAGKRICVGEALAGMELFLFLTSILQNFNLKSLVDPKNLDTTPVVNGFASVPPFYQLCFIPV
The description is as above. The class given is in vitro ADME. The note with it: read-out: IC50 against CYP2C9. As to the method:
as §1

Another data set deals with T4, CYP2D6 (Homo sapiens, UniProt P10635).
T4 construct: co-incubated with human liver microsomes and test compounds; from tissue; host or cells: human liver microsomes
T4 sequence (P10635 whole entry): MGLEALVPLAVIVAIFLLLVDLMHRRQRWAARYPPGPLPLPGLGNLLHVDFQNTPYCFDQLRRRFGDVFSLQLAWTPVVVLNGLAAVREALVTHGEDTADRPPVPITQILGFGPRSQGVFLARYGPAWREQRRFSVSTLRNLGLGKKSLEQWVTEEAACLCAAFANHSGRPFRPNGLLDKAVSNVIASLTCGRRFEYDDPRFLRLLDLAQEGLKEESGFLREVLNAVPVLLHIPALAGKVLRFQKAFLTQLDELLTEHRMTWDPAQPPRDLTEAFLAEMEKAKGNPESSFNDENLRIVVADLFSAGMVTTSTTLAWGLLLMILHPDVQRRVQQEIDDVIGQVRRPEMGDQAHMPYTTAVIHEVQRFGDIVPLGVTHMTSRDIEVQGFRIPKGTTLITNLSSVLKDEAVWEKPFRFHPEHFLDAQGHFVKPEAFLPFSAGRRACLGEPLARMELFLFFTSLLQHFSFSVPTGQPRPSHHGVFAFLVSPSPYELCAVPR
The data set is described as above. Type of data set: in vitro ADME. Particulars: read-out: IC50 against CYP2D6. As to the method:
as §1

In a further data set the target is T5, CYP3A4 (Homo sapiens, UniProt P08684).
T5 construct: co-incubated with human liver microsomes and test compounds; from tissue; host or cells: human liver microsomes
T5 sequence (P08684 whole entry): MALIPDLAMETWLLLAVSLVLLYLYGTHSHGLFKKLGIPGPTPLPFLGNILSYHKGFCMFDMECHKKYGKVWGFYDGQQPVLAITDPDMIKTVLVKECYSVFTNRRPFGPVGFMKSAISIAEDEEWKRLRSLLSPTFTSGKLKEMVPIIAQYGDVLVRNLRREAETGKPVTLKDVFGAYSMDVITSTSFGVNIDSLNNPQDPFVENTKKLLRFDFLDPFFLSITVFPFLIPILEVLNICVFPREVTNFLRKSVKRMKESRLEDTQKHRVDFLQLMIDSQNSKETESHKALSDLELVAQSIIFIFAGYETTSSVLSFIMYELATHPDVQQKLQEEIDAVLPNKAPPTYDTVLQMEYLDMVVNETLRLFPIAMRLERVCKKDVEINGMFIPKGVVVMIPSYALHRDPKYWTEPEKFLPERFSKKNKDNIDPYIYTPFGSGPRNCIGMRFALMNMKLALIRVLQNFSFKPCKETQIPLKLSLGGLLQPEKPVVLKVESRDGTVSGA
The data set is described as above. The class given is in vitro ADME. The note with it: read-out: IC50 against CYP3A4. As to the method: as §1

Broadly, the AUC(0-t) is the area under the concentration-time curve up to a stated or last time point. Low readings indicate less exposure, high ones more exposure. As usually defined, the IC50 is the concentration that gives 50% inhibition.

SMILES strings stand for the structures. Bounds are passed on as bounds.

As to `COc1c([C@H]2[C@H](C(=O)Nc3ccnc(P(C)(C)=O)c3)S[C@@](C)(C(F)(F)F)[C@H]2C)ccc(F)c1F` [Compound 58], in data set [1], the AUC(0-t) came out at 65100 ± 9200 ng·h/mL. In addition, the IC50 at CYP1A2, at CYP2C19, on CYP2C9, at CYP2D6 and at CYP3A4 was over 30 µM in each case.
